Measurements taken from ChEMBL document CHEMBL1201862, “PubChem BioAssay data set” (2004).
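Exposure lasted 48 hours, with cells grown in 96-well plates and compounds tested at five concentrations. At the GI50, growth is halved.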 Active and inactive are the calls of the source. No stated cut-off is given here; in the data, active = GI50 up to about 1.1 µM and inactive = higher.

Experiments:
Assay in all cases: NCI anticancer screen, dose series, 48 h
[1] = system: ACHN
[2] = system: U-251
[3] = system: SK-MEL-2
[4] = system: HT-29
[5] = system: M14
[6] = system: LOX IMVI
[7] = system: OVCAR-4
[8] = system: NCI/ADR-RES
[9] = system: HOP-62
[10] = system: SF-539
[11] = system: SNB-75
[12] = system: HCT-116
[13] = system: HCC 2998
[14] = system: SK-OV-3
[15] = system: OVCAR-3
[16] = system: K562
[17] = system: Hs-578T
[18] = system: OVCAR-5
[19] = system: UACC-257
[20] = system: HL-60

Compound: C[N+](C)(N)Cc1csc(-c2ccc(Cl)cc2)n1
- GI50 [1]: > 100 µM (inactive)
- GI50 [2]: > 100 µM (inactive)
- GI50 [3]: > 100 µM (inactive)
- GI50 [4]: > 100 µM (inactive)
- GI50 [5]: > 100 µM (inactive)
- GI50 [6]: > 100 µM (inactive)
- GI50 [7]: > 100 µM (inactive)
- GI50 [8]: > 100 µM (inactive)
- GI50 [9]: 75.7 µM (inactive)
- GI50 [10]: > 100 µM (inactive)
- GI50 [11]: 42.4 µM (inactive)
- GI50 [12]: > 100 µM (inactive)
- GI50 [13]: > 100 µM (inactive)
- GI50 [14]: > 100 µM (inactive)
- GI50 [15]: 89.5 µM (inactive)
- GI50 [16]: > 100 µM (inactive)
- GI50 [17]: 23.9 µM (inactive)
- GI50 [18]: > 100 µM (inactive)
- GI50 [19]: > 100 µM (inactive)

Compound: CC(C)(C)c1ccc2c(c1)OCc1n[nH]c(n1)COc1cc(C(C)(C)C)ccc1OCCOCCO2
- GI50 [1]: 4.39 µM (inactive)
- GI50 [2]: 2.8 µM (inactive)
- GI50 [20]: 4.35 µM (inactive)
- GI50 [3]: 1.81 µM (inactive)
- GI50 [4]: 3.01 µM (inactive)
- GI50 [5]: 2.86 µM (inactive)
- GI50 [7]: 0.248 µM (active)
- GI50 [8]: 3.41 µM (inactive)
- GI50 [9]: 5.62 µM (inactive)
- GI50 [10]: 7.29 µM (inactive)
- GI50 [11]: 5.27 µM (inactive)
- GI50 [12]: 4.31 µM (inactive)
- GI50 [13]: 3.72 µM (inactive)
- GI50 [14]: 3.77 µM (inactive)
- GI50 [15]: 2.53 µM (inactive)
- GI50 [16]: 4.27 µM (inactive)
- GI50 [17]: 2.26 µM (inactive)
- GI50 [18]: 5.96 µM (inactive)
- GI50 [19]: 2.65 µM (inactive)

Compound: CCc1c(O)cc(=O)oc1-c1ccc(OC)c(OC)c1
- GI50 [1]: > 100 µM (inactive)
- GI50 [2]: > 100 µM (inactive)
- GI50 [3]: > 100 µM (inactive)
- GI50 [4]: > 100 µM (inactive)
- GI50 [5]: > 100 µM (inactive)
- GI50 [6]: > 100 µM (inactive)
- GI50 [7]: > 100 µM (inactive)
- GI50 [8]: > 100 µM (inactive)
- GI50 [9]: > 100 µM (inactive)
- GI50 [10]: > 100 µM (inactive)
- GI50 [11]: 72.6 µM (inactive)
- GI50 [12]: > 100 µM (inactive)
- GI50 [13]: > 100 µM (inactive)
- GI50 [14]: > 100 µM (inactive)
- GI50 [15]: > 100 µM (inactive)
- GI50 [16]: > 100 µM (inactive)
- GI50 [17]: > 100 µM (inactive)
- GI50 [18]: > 100 µM (inactive)
- GI50 [19]: > 100 µM (inactive)

Compound: CCOC(=O)C1(C/C=C\CBr)CCCCCCCCCCC1=O (configuration not stated)
- GI50 [1]: 15.6 µM (inactive)
- GI50 [2]: 7.01 µM (inactive)
- GI50 [3]: 15.3 µM (inactive)
- GI50 [4]: 4.38 µM (inactive)
- GI50 [5]: 15.7 µM (inactive)
- GI50 [6]: 0.428 µM (active)
- GI50 [7]: 10.6 µM (inactive)
- GI50 [8]: 16.7 µM (inactive)
- GI50 [9]: 18.2 µM (inactive)
- GI50 [10]: 3.43 µM (inactive)
- GI50 [11]: 12.4 µM (inactive)
- GI50 [12]: 17 µM (inactive)
- GI50 [13]: 16 µM (inactive)
- GI50 [14]: 16.8 µM (inactive)
- GI50 [15]: 2.09 µM (inactive)
- GI50 [16]: 3.95 µM (inactive)
- GI50 [17]: 20 µM (inactive)
- GI50 [18]: 16.2 µM (inactive)
- GI50 [19]: 15.2 µM (inactive)

Compound: CC(=O)Oc1ccn2nc(C)c(Cc3c(C)nn4ccc(OC(C)=O)cc34)c2c1
- GI50 [1]: 98.2 µM (inactive)
- GI50 [2]: 62.7 µM (inactive)
- GI50 [20]: 39.1 µM (inactive)
- GI50 [3]: 34.6 µM (inactive)
- GI50 [4]: > 100 µM (inactive)
- GI50 [5]: > 100 µM (inactive)
- GI50 [6]: 79.1 µM (inactive)
- GI50 [7]: > 100 µM (inactive)
- GI50 [8]: > 100 µM (inactive)
- GI50 [9]: 48 µM (inactive)
- GI50 [10]: 51.4 µM (inactive)
- GI50 [11]: 54.8 µM (inactive)
- GI50 [12]: > 100 µM (inactive)
- GI50 [15]: > 100 µM (inactive)
- GI50 [16]: 37.8 µM (inactive)
- GI50 [17]: 32.4 µM (inactive)
- GI50 [18]: > 100 µM (inactive)
- GI50 [19]: 47.1 µM (inactive)

Compound: COc1ccc2c3c([nH]c2c1)[C@H]1C[C@H]2[C@H](C[C@@H](O)[C@H](OC)[C@H]2C(=O)O)CN1CC3
- GI50 [1]: > 100 µM (inactive)
- GI50 [2]: > 100 µM (inactive)
- GI50 [3]: > 100 µM (inactive)
- GI50 [4]: > 100 µM (inactive)
- GI50 [5]: > 100 µM (inactive)
- GI50 [6]: > 100 µM (inactive)
- GI50 [7]: > 100 µM (inactive)
- GI50 [8]: > 100 µM (inactive)
- GI50 [9]: > 100 µM (inactive)
- GI50 [10]: > 100 µM (inactive)
- GI50 [11]: > 100 µM (inactive)
- GI50 [12]: > 100 µM (inactive)
- GI50 [13]: > 100 µM (inactive)
- GI50 [14]: > 100 µM (inactive)
- GI50 [15]: > 100 µM (inactive)
- GI50 [16]: > 100 µM (inactive)
- GI50 [17]: 62.8 µM (inactive)
- GI50 [18]: > 100 µM (inactive)
- GI50 [19]: > 100 µM (inactive)

Compound: O=C1c2scnc2-c2nccc3c2c1nc1ccccc13 [KUANONIAMINE A]
- GI50 [1]: 0.955 µM (active)
- GI50 [2]: 0.268 µM (active)
- GI50 [3]: 1.01 µM (active)
- GI50 [4]: 2.55 µM (inactive)
- GI50 [5]: 0.564 µM (active)
- GI50 [6]: 0.172 µM (active)
- GI50 [7]: 1.16 µM (inactive)
- GI50 [8]: 0.231 µM (active)
- GI50 [9]: 1.04 µM (active)
- GI50 [10]: 0.232 µM (active)
- GI50 [11]: 0.94 µM (active)
- GI50 [12]: 0.272 µM (active)
- GI50 [13]: 1.15 µM (inactive)
- GI50 [14]: 2.54 µM (inactive)
- GI50 [15]: < 0.0134 µM (active)
- GI50 [16]: 0.682 µM (active)
- GI50 [17]: 1.8 µM (inactive)
- GI50 [18]: 2.63 µM (inactive)
- GI50 [19]: 0.363 µM (active)
